From US20100204151A1, “USE OF A PEPTIDE AS A THERAPEUTIC AGENT” (priority 2007, published 2010)

Test system: drug-resistant Mycobacterium tuberculosis
Conditions: peptide 10 micrograms per ml, seven days

## Ac-HWAVGHL-NH2 [Acetyl-GRP (20-26), Ac-His-Trp-Ala-Val-Gly-His-Leu-NH2]
  % inhibition: 0.0%
